Test results from patent publication US20210156844A1, “TMEM16A Modulation for Diagnostic or Therapeutic Use in Pulmonary Hypertension (PH)” (Bayer Aktiengesellschaft, priority 2017, published 2021).

How the values were obtained:
PASMC = assay: Membrane potential (Em) measurement, current clamp, primary PASMC; format: cell-based, human; settings: BBR 30 μM, T16Ainh-A01 10 μM
Experimental: PASMC were grown on glass coverslips and serum starved for 24-48 hours. The coverslips were perfused with a bath solution composed of (in mM) NaCl 141, KCl 4.7, HEPES 10, glucose 10, CaCl2 1.8, MgCl2 1.2, pH 7.4 (NaOH) at room temperature. Micropipettes were pulled of borosilicate glass capillaries (GC150F-10, Harvard Apparatus Ltd, Edenbridge, Kent, UK) with a P-2000 electrode puller (Sutter Instruments, Novato Ca, USA), and fire polished using a micro-forge (MF-830, Narishige, Tokyo, Japan) to give a final resistance of 3-5 MΩ when filled with the pipette solution (composition in mM: NaCl 10, KCl 125, K2ATP 5, HEPES 10, EGTA 5, MgCl2 4, pH set to 7.2 with KOH). Em was measured with a HEKA EPC10 patch clamp amplifier (Dr. Schulze GmbH, Lambrecht, Germany) in the current clamp mode as described by others (Mason, M J, et al., Biophys. J. (2005) 88, 739-750; Perkins, KL, J. Neurosci. Methods (2006) 154, 1-18).
The liquid junction potential was calculated with the Clampex 10.0 software (Molecular Devices, Sunnyvale Calif., USA) and an online correction was made for each recording. Both at baseline and during perfusion with 30 μM benzbromarone (BBR, Sigma, St Louis Mo., USA) or 10 μM T16Ainh-A01 (Tocris, Bristol, UK), only those recordings in which (1) the Em was constant for at least 3 minutes, and (2) the seal resistance was constantly high (>5 GΩ) were used for the analyses.
The HEK-293 cells were transfected overnight either with the CLCA1 gene containing or with the empty plasmid, using the Effectene transfection reagent kit (Qiagen) and DMEM F-12 complete medium. On the next day, the medium was changed to serum-free SMC Medium. The resulting conditioned media were collected 24 hours later and applied on the PASMC of healthy donors. After 24 hours of incubation, the Em of the PASMC was measured as described above. To confirm the presence of CLCA1 in the conditioned medium, 20 μL of conditioned medium as well as control medium (collected from cells transfected with the empty plasmide) were analyzed with western blot as described above, using a CLCA1 antibody (ab108851, Abcam).

[1] = system: U-46619 preconstricted isolated mouse PA; assay: Measurement of pulmonary artery tone ex vivo; settings: cumulatively increasing concentrations 0.1 to 30 μM; U-46619 30 nM
Experimental: Pulmonary artery rings were isolated from male C57BL/6J mice (20-25 weeks old, Charles River, Wilmington Mass., USA), as described by Jain et al. (Jain, P P, et al., Int. J. Nanomedicine (2014) 9, 3249-3261). Following stable contraction (approx. 30 minutes post-addition of U-46619, 30 nM), the arteries were subjected to cumulatively increasing concentrations (0.1 to 30 μM) of the TMEM6A blockers T16Ainh-A01 (Tocris) and benzbromarone (Sigma) in order to analyze the concentration-response relationships.

CCc1c(C)nc(SCC(=O)Nc2nc(-c3ccc(OC)cc3)cs2)[nH]c1=O [T16Ainh-A01, 2-[(5-Ethyl-1,6-dihydro-4-methyl-6-oxo-2-pyrimidinyl)thio]-N-[4-(4-methoxyphenyl)-2-thiazolyl]-acetamide]
reversal of the Em of IPAH-PASMC to the levels of PASMC isolated from healthy donors (PASMC; PASMC of IPAH patients): close | effect on Em of PASMC of donors (PASMC; PASMC of healthy donors): no effect | vasorelaxation of preconstricted PA [1]: dose-dependent vasorelaxation
